Experimental findings from patent US20240390349A1, “DOSING REGIMEN OF CAPSID INHIBITOR” (priority 2023, published 2024) are described below.

The nature of the data set: clinical. Particulars: human, in vivo. From the text:
The objective of this study was to evaluate the pharmacokinetics (PK) of LEN during oral bridging period (OBP) to assess the adequacy of 300-mg PO once-weekly (QW) regimen for maintaining therapeutic concentrations between missed SC LEN doses. During OBP, sparse PK samples were collected at the start of OBP and every ˜10-12 weeks (without regard to a prespecified time since dose) until SC LEN was resumed. LEN plasma concentrations were summarized during OBP in the CAPELLA (N=57) and CALIBRATE (N=82) studies.
Participants required oral weekly bridging if an SC injection of LEN could not be administered for any reason within the protocol visit window. If 26 to 28 weeks elapsed since the last SC injection, and if clinically appropriate to continue LEN, participants started oral LEN 300 mg (1 tablet) once a week at the oral bridging visit(s) and continued weekly dosing on the same day of the week. If more than 28 weeks elapsed since the last SC injection, and if clinically appropriate to continue LEN, participants restarted the oral lead-in at the oral bridging visits and continued oral weekly dosing on the same day of the week, until SC LEN was administered, as shown in Table 6.
Oral bridging day was calculated from first dose date of Oral Bridging.

Setting [1] is: po, Lower 90% CI of Concentration.
[2] abbreviates: po, Lower 90% CI of LEN concentration.

For the molecule `CC(C)(C#Cc1ccc(-c2ccc(Cl)c3c(NS(C)(=O)=O)nn(CC(F)(F)F)c23)c([C@H](Cc2cc(F)cc(F)c2)NC(=O)Cn2nc(C(F)(F)F)c3c2C(F)(F)[C@@H]2C[C@H]32)n1)S(C)(=O)=O` [LEN, N—((S)-1-(3-(4-chloro-3-(methylsulfonamido)-1-(2,2,2-trifluoroethyl)-1H-indazol-7-yl)-6-(3-methyl-3-(methylsulfonyl)but-1-yn-1-yl)pyridin-2-yl)-2-(3,5-difluorophenyl)ethyl)-2-((3bS,4aR)-5,5-difluoro-3-(trifluoromethyl)-3b,4,4a,5-tetrahydro-1H-cyclopropa [3,4]cyclopenta [1,2-c]pyrazol-1-yl) acetamide], the “Mean LEN concentration and lower bound 90% CI versus efficacy target IQ4” value is given as more than 15.5 ng/mL. For the same molecule, under “10 week”, the “90% CI of mean LEN concentration” value is 66.1, 86.3. Also, for the setting “20 week”, the “90% CI of mean LEN concentration” value is 50.4, 99.3. Further, the “90% CI of mean LEN concentration” value (30 week) is on record as 29.9, 53.5. The “90% CI of mean LEN concentration” value (1 day) is given as 40.3, 51.9. Where the note is “po, Concentration, Mean (% CV)”, this molecule showed a concentration at 10 day of 76.2 ng/mL and a concentration at 20 day of 74.8 ng/mL. Under setting [1], this molecule yielded a concentration at 10 day of 66.1 ng/mL, a concentration at 20 day of 50.4 ng/mL and a concentration at 30 day of 29.9 ng/mL. Under setting [2], this molecule came in with a concentration at 10 week of 66.1 ng/mL, a concentration at 20 week of 50.4 ng/mL, a concentration at 30 week of 29.9 ng/mL and a concentration at 1 day of 40.3 ng/mL.
